Legend:
Type in all cases: in vivo
[1] = test system: Pennlinks creeping bentgrass maintained as a golf fairway; test: Turfgrass quality rating, fairway creeping bentgrass (Example 15); settings: scale of 1-9
Excerpt: (§1) In this Example, the effect of a fertilizer comprising lysine on cool season fairway turfgrass growth was examined. The effects of lysine (HCl) and LIQUID LYSINE on a common type of golf course fairway variety turfgrass (Pennlinks creeping bentgrass maintained as a golf fairway) were compared with those of urea, Milorganite and a blended fertilizer (a blend of methylene urea and urea in an approximately 1:1 ratio).
Fifteen fertilizer treatments comprising three concentrations of each fertilizer composition (Milorganite (N—P—K, 6-2-0), urea (N—P—K, 46-0-0), a blended fertilizer, LIQUID LYSINE (N—P—K, 10-2-1), and lysine (HCl) (N—P—K, 15-2-1)) were prepared and applied to 3 replications of a well established Pennlinks creeping bentgrass maintained as a golf fairway grass. The urea, lysine (HCl), and LIQUID LYSINE were dissolved/suspended in 1.5 gal water prior to application. […] The urea, LIQUID LYSINE and lysine (HCl) were applied as foliar liquids, while Milorganite and the blended fertilizer were applied as granular fertilizers. Plot size was 4 ft×8 ft laid out in a replicated complete block design. Plots were mowed at 0.5 inches before fertilizer application and mowed three times per week to 0.5 inch height. Grass clippings were not removed from the plots and no supplemental cultural maintenance was applied. Irrigation (0.15 inch) was applied following application and every other day thereafter. Plots were rated for turfgrass quality (scale of 1-9 where 9=dark green turf, 1=dead/brown turf, and 6=minimally acceptable turf and phytotoxic injury (scale of 0-9 where 9=significant foliar injury and 2=minimally objectional foliar injury) throughout the study period. Quality was measured prior to application (day 0) and day 37, day 70 and day 95 after application. Injury was measured on day 37, day 70 and day 95 after application. All data was subject to statistical analysis and significant means were determined. Average turfgrass quality ratings for the treatments are presented in Table 24.

[2] = test system: Pennlinks creeping bentgrass for greens; test: Phytotoxic injury rating, greens creeping bentgrass (Example 16)
Excerpt: as §1, with “greens quality” for “fairway”, “greens quality” for “fairway variety”, “for greens, mown at 0.1875 in height of cut)” for “maintained as a golf fairway)”
Fifteen fertilizer treatments comprising three concentrations of each fertilizer composition (Milorganite (N—P—K, 6-2-0), urea (N—P—K, 46-0-0), a blended fertilizer, LIQUID LYSINE N—P—K, 10-2-1), and lysine (HCl) (N—P—K, 15-2-1)) were prepared and applied to 3 replications of well established Pennlinks creeping bentgrass mown to 0.1875 in height cut. The urea, lysine (HCl), and LIQUID LYSINE were dissolved/suspended in 1.5 gal water prior to application. Each fertilizer treatment was applied in concentrations of 0.125 lb N/1000 ft^2/week, 0.250 lb N/1000 ft^2/week and 0.750 lb N/1000 ft^2/week. The urea, LIQUID LYSINE and lysine (HCl) were applied as foliar liquids, while Milorganite and blended fertilizer were applied as granular fertilizers. Plot size was 4 ft×8 ft laid out in a replicated complete block design. Plots were mowed at 0.1875 inches height before fertilizer application and mowed five times per week to 0.1875 inch height. Grass clippings were removed from the plots after each mowing. Irrigation (0.15 inch) was applied following application and daily thereafter. Plots were rated for turfgrass quality (scale of 1-9 where 9=dark green turf, 1=dead/brown turf, and 6=minimally acceptable turf) and phytotoxic injury (scale of 0-9 where 9=significant foliar injury and 2=minimally objectionable foliar injury) throughout the study period. Quality was measured prior to application (day 0) and day 37, day 70 and day 95 after application. Injury was measured on day 37, day 70 and day 95 after application. Ai) additional set of turfgrass plots were fertilized with three treatments of a soy concentrate fertilizer with the same application rates and methods. The quality and phytotoxic injury of the soy concentrate fertilizer plots were measured on day 95. All data was subject to statistical analysis and significant means were determined.

[3] = test system: Moonlight Kentucky bluegrass; test: Blade density rating, Kentucky bluegrass lawn (Example 17); settings: Day 70
Excerpt: as §1, with “lawn variety” for “fairway”, “variety” for “type”, “law” for “golf course fairway variety”, “(Moonlight Kentucky bluegrass)” for “(Pennlinks creeping bentgrass maintained as a golf fairway)”
Fifteen fertilizer treatments comprising three concentrations of each fertilizer composition (Milorganite N—P—K, 6-2-0), urea (N—P—K, 46-0-0), a blended fertilizer, LIQUID LYSINE (N—P—K, 10-2-1), and lysine (HCl) (N—P—K, 15-2-1)) were prepared and applied to 3 replications of newly established “Moonlight” variety Kentucky bluegrass lawn turfgrass. The urea, lysine (HCl), and LIQUID LYSINE were dissolved/suspended in 1.5 gal water prior to application. […], 1.0 lb N/1000 ft^2/year and 3.0 lb N/1000 ft^2/year, The urea, LIQUID LYSINE and lysine (HCl) were applied as foliar liquids, while Milorganite and the blended fertilizer were applied as granular fertilizers. Plot size was 4 ft×8 ft laid out in a replicated complete block design. Plots were mowed at 2.0 inches before fertilizer application and mowed two times per week to 2.0 inch height. Grass clippings were not removed from the plots and no supplemental cultural maintenance or pest management was applied. Irrigation (0.15 inch) was applied following application and thereafter only when necessary to insure survival of the turf. Plots were rated for turfgrass quality (scale of 1-9 where 9=dark green turf, 1=dead/brown turf, and 6=minimally acceptable turf) and phytotoxic injury (scale of 0-9 where 9=significant foliar injury and 2=minimally objectionable foliar injury) throughout the study period. Quality was measured prior to application (day 0) and day 37, day 70 and day 95 after application. Injury was measured on day 37 and day 70 after application. In addition, blade density of the grass was measured on day 70 after application (scale of 1-9, where 9=very dense turf, 1=low density turf). All data was subject to statistical analysis and significant means were determined.

[4] = Weekly Rate 0.5 lbs N/1000 ft^2, Day 0
[5] = Weekly Rate 0.5 lbs N/1000 ft^2, Day 37
[6] = Weekly Rate 0.5 lbs N/1000 ft^2, Day 70
[7] = Weekly Rate 0.5 lbs N/1000 ft^2, Day 95
[8] = Weekly Rate 1.0 lbs N/1000 ft^2, Day 0
[9] = Weekly Rate 1.0 lbs N/1000 ft^2, Day 37
[10] = Weekly Rate 1.0 lbs N/1000 ft^2, Day 70
[11] = Weekly Rate 1.0 lbs N/1000 ft^2, Day 95
[12] = Weekly Rate 3.0 lbs N/1000 ft^2, Day 0
[13] = Weekly Rate 3.0 lbs N/1000 ft^2, Day 37
[14] = Weekly Rate 3.0 lbs N/1000 ft^2, Day 70
[15] = Weekly Rate 3.0 lbs N/1000 ft^2, Day 95
[16] = Weekly Rate 0.125 lbs N/1000 ft^2, Day 37
[17] = Weekly Rate 0.125 lbs N/1000 ft^2, Day 70
[18] = Weekly Rate 0.125 lbs N/1000 ft^2, Day 95
[19] = Weekly Rate 0.25 lbs N/1000 ft^2, Day 37
[20] = Weekly Rate 0.25 lbs N/1000 ft^2, Day 70
[21] = Weekly Rate 0.25 lbs N/1000 ft^2, Day 95
[22] = Weekly Rate 0.75 lbs N/1000 ft^2, Day 37
[23] = Weekly Rate 0.75 lbs N/1000 ft^2, Day 70
[24] = Weekly Rate 0.75 lbs N/1000 ft^2, Day 95
[25] = Weekly Rate 0.5 lbs N/1000 ft^2
[26] = Weekly Rate 1.0 lbs N/1000 ft^2
[27] = Weekly Rate 3.0 lbs N/1000 ft^2

NC(N)=O [Urea, urea, reference compound]
Quality Rating - Fairway Bentgrass [1, 4]: 6.7a
Quality Rating - Fairway Bentgrass [1, 5]: 6.7ab
Quality Rating - Fairway Bentgrass [1, 6]: 6.0
Quality Rating - Fairway Bentgrass [1, 7]: 7.0a
Quality Rating - Fairway Bentgrass [1, 8]: 7.0a
Quality Rating - Fairway Bentgrass [1, 9]: 7.0a
Quality Rating - Fairway Bentgrass [1, 10]: 6.7
Quality Rating - Fairway Bentgrass [1, 11]: 7.0a
Quality Rating - Fairway Bentgrass [1, 12]: 6.3a
Quality Rating - Fairway Bentgrass [1, 13]: 7.0a
Quality Rating - Fairway Bentgrass [1, 14]: 6.0
Quality Rating - Fairway Bentgrass [1, 15]: 7.0a
Injury Rating - Greens Bentgrass [2, 16]: 1.0b
Injury Rating - Greens Bentgrass [2, 17]: 1.3
Injury Rating - Greens Bentgrass [2, 18]: 3.0ab
Injury Rating - Greens Bentgrass [2, 19]: 1.0b
Injury Rating - Greens Bentgrass [2, 20]: 1.0
Injury Rating - Greens Bentgrass [2, 21]: 2.0ab
Injury Rating - Greens Bentgrass [2, 22]: 1.0b
Injury Rating - Greens Bentgrass [2, 23]: 1.0
Injury Rating - Greens Bentgrass [2, 24]: 2.7ab
Density Rating - Kentucky Bluegrass [3, 25]: 5.0de
Density Rating - Kentucky Bluegrass [3, 26]: 5.3cde
Density Rating - Kentucky Bluegrass [3, 27]: 7.0ab

Cl.NCCCC[C@H](N)C(=O)O [Lys (HCl) 15% N, L-lysine monohydrochloride]
Quality Rating - Fairway Bentgrass [1, 4]: 6.3a
Quality Rating - Fairway Bentgrass [1, 5]: 6.0ab
Quality Rating - Fairway Bentgrass [1, 6]: 6.0
Quality Rating - Fairway Bentgrass [1, 7]: 7.0a
Quality Rating - Fairway Bentgrass [1, 8]: 7.0a
Quality Rating - Fairway Bentgrass [1, 9]: 7.0a
Quality Rating - Fairway Bentgrass [1, 10]: 5.7
Quality Rating - Fairway Bentgrass [1, 11]: 7.0a
Quality Rating - Fairway Bentgrass [1, 12]: 7.0a
Quality Rating - Fairway Bentgrass [1, 13]: 6.7ab
Quality Rating - Fairway Bentgrass [1, 14]: 5.7
Quality Rating - Fairway Bentgrass [1, 15]: 7.0a
Injury Rating - Greens Bentgrass [2, 16]: 1.0b
Injury Rating - Greens Bentgrass [2, 17]: 1.0
Injury Rating - Greens Bentgrass [2, 18]: 2.3ab
Injury Rating - Greens Bentgrass [2, 19]: 1.0b
Injury Rating - Greens Bentgrass [2, 20]: 1.0
Injury Rating - Greens Bentgrass [2, 21]: 2.7ab
Injury Rating - Greens Bentgrass [2, 22]: 2.0a
Injury Rating - Greens Bentgrass [2, 23]: 1.3
Injury Rating - Greens Bentgrass [2, 24]: 2.3ab
Density Rating - Kentucky Bluegrass [3, 25]: 5.3cde
Density Rating - Kentucky Bluegrass [3, 26]: 6.3abc
Density Rating - Kentucky Bluegrass [3, 27]: 7.0ab

From patent US7811352B2, “Fertilizer compositions and methods of using” (priority 2005, dated 2010)
